{
  "source": "patent US20210137948A1",
  "about": "“TREATMENT OF INFECTIONS CAUSED BY NEISSERIA GONOCOCCUS USING A HALOGENATED SALICYLANILIDE” (priority 2018, published 2021)",
  "key": {"[1]": {"test_system": "Neisseria gonorrhoeae CDC panel consisting of 48 isolates", "assay": "Agar dilution MIC, CDC panel of 48 isolates (Example 2)", "assay_type": "cell-based", "conditions": "for MIC: Neisseria gonorrhoeae, read-out: Minimal inhibitory concentration", "description": "Neisseria gonorrhoeae (Neisseria gonocossus) were tested for antimicrobial susceptibility using agar dilution as described by the Clinical and Laboratory Standards Institute (CLSI), see reference (4).\nThe concentrations tested for each compound encompass the reported interpretive breakpoints and consist of 8 or more doubling dilutions, ensuring that there is one dilution below the lowest value of QC.\nGC agar base +1% defined growth supplement.\nInitial screening strains: Neisseria gonorrhoeae CDC panel consisting of 48 isolates. The strains were provided by Clinical and Environmental Microbiology Branch, Division of Healthcare Quality Promotion, CDC (Atlanta, US).\nDilution scheme for reference method: Prepare intermediate 100× antimicrobial agent solutions by making successive serial twofold dilutions. Then, add one part of the 100× antimicrobial solution to […] of molten agar. Plates containing no antimicrobial agent solutions are made for use as growth controls. It is important that no longer than one hour elapses between the time that the stock solution is thawed, the dilutions are prepared and added to the base medium and the plates are poured, see reference (5).\n• Add appropriate dilutions of antimicrobial solution to molten test agars that have been allowed to equilibrate in a water bath to 50° C. • Mix the agar and antimicrobial solution thoroughly and pour (20 mL) into Petri dishes on a level surface. Pour quickly after mixing to prevent cooling and partial solidification in the mixing container. Avoid generating bubbles when mixing. • Allow the agar to solidify at room temperature and store them in sealed plastic bags at 2 to 8° C. for up to five days. Preferably use with 24 hours. • Allow plates stored at 2 to 8° C. to equilibrate to room temperature before use. Make certain that the agar surface is dry before inoculating the plates. If necessary, place the plates in an incubator or laminar flow hood for approximately 30 minutes with their lids ajar to hasten drying of the agar surface.\nInoculum preparation: Prepare a standardized inoculum for the agar dilution method by suspending isolated colonies of Neisseria gonorrhoeae selected from an 18-24 hour-old chocolate agar plate directly in Mueller Hinton Broth (MHB) to achieve the density equivalent to a 0.5 McFarland standard and adjusted to obtain a cell density of ˜1-2×10^8 CFU/mL. For N. gonorrhoeae, the McFarland solutions are made at a reading of ˜0.80 in densitometer (Grant Instruments DEN-1B Densitometer) because these values have been evaluated and correspond to the desired CFU/mL count.\nDilution of inoculum suspension: Cultures adjusted to the 0.5 McFarland standard contain approximately 1 to 2×10^8 CFU/mL with most species, and the final inoculum required is 10^4 CFU per spot. When using replicators with 3-mm pins that deliver ˜2.5 μL, dilute the 0.5 McFarland suspension 1:10 in sterile MHB to obtain a concentration of 10^7 CFU/mL. The final inoculum on the agar will be approximately 10^4 CFU per spot. Use the adjusted suspensions for final inoculation within 60 minutes of preparation, see reference (5).\nThe following procedure was followed: • Arrange the tubes containing the adjusted and diluted bacterial suspensions (10^7 CFU/mL) in order in a rack. Place an aliquot of each well-mixed suspension into the corresponding well in the replicator inoculum block (if being used). • Mark the agar plates for orientation of the inoculum spots. • Apply an aliquot of each inoculum (2.5 μL) to the agar surface, either with an inocula-replicating device or pipette, to obtain a final concentration of ˜10^4 CFU/spot. • Inoculate a growth-control plate (no antimicrobial agent) first and then, starting with the lowest concentration, inoculate the plates containing the different antimicrobial concentrations. […]"}, "mice": {"test_system": "mice", "conditions": "cited from earlier work"}, "rats": {"test_system": "rats", "conditions": "cited from earlier work"}},
  "note": "Where two headings read alike, the source gives them in different places.",
  "data": [
    {"smiles": "Cc1cc(C(C#N)c2ccc(Cl)cc2)c(Cl)cc1NC(=O)c1cc(I)cc(I)c1O", "note": "(stereo not drawn) [Closantel, closantel]", "values": [
      {"measurement": "MIC", "setting": "[1]; Neisseria gonorrhoeae strain CDC # 165", "result": 8, "unit": "µg/mL"},
      {"measurement": "MIC", "setting": "[1]; Neisseria gonorrhoeae strain CDC # 166", "result": "≤ 0.25", "unit": "µg/mL"},
      {"measurement": "MIC", "setting": "[1]; Neisseria gonorrhoeae strain CDC # 167", "result": "≤ 0.25", "unit": "µg/mL"},
      {"measurement": "MIC", "setting": "[1]; Neisseria gonorrhoeae strain CDC # 169", "result": "≤ 0.25", "unit": "µg/mL"},
      {"measurement": "MIC", "setting": "[1]; Neisseria gonorrhoeae strain CDC # 170", "result": "≤ 0.25", "unit": "µg/mL"},
      {"measurement": "MIC", "setting": "[1]; Neisseria gonorrhoeae strain CDC # 171", "result": "≤ 0.25", "unit": "µg/mL"},
      {"measurement": "MIC", "setting": "[1]; Neisseria gonorrhoeae strain CDC # 172", "result": "≤ 0.25", "unit": "µg/mL"},
      {"measurement": "MIC", "setting": "[1]; Neisseria gonorrhoeae strain CDC # 173", "result": 0.5, "unit": "µg/mL"},
      {"measurement": "MIC", "setting": "[1]; Neisseria gonorrhoeae strain CDC # 174", "result": "≤ 0.25", "unit": "µg/mL"},
      {"measurement": "MIC", "setting": "[1]; Neisseria gonorrhoeae strain CDC # 175", "result": "≤ 0.25", "unit": "µg/mL"},
      {"measurement": "MIC", "setting": "[1]; Neisseria gonorrhoeae strain CDC # 176", "result": "≤ 0.25", "unit": "µg/mL"},
      {"measurement": "MIC", "setting": "[1]; Neisseria gonorrhoeae strain CDC # 177", "result": 4, "unit": "µg/mL"},
      {"measurement": "MIC", "setting": "[1]; Neisseria gonorrhoeae strain CDC # 178", "result": "≤ 0.25", "unit": "µg/mL"},
      {"measurement": "MIC", "setting": "[1]; Neisseria gonorrhoeae strain CDC # 179", "result": "≤ 0.25", "unit": "µg/mL"},
      {"measurement": "MIC", "setting": "[1]; Neisseria gonorrhoeae strain CDC # 180", "result": "≤ 0.25", "unit": "µg/mL"},
      {"measurement": "MIC", "setting": "[1]; Neisseria gonorrhoeae strain CDC # 181", "result": "≤ 0.25", "unit": "µg/mL"},
      {"measurement": "MIC", "setting": "[1]; Neisseria gonorrhoeae strain CDC # 182", "result": "≤ 0.25", "unit": "µg/mL"},
      {"measurement": "MIC", "setting": "[1]; Neisseria gonorrhoeae strain CDC # 183", "result": "≤ 0.25", "unit": "µg/mL"},
      {"measurement": "MIC", "setting": "[1]; Neisseria gonorrhoeae strain CDC # 184", "result": "≤ 0.25", "unit": "µg/mL"},
      {"measurement": "MIC", "setting": "[1]; Neisseria gonorrhoeae strain CDC # 185", "result": "≤ 0.25", "unit": "µg/mL"},
      {"measurement": "MIC", "setting": "[1]; Neisseria gonorrhoeae strain CDC # 186", "result": "≤ 0.25", "unit": "µg/mL"},
      {"measurement": "MIC", "setting": "[1]; Neisseria gonorrhoeae strain CDC # 187", "result": "≤ 0.25", "unit": "µg/mL"},
      {"measurement": "MIC", "setting": "[1]; Neisseria gonorrhoeae strain CDC # 188", "result": "≤ 0.25", "unit": "µg/mL"},
      {"measurement": "MIC", "setting": "[1]; Neisseria gonorrhoeae strain CDC # 189", "result": "≤ 0.25", "unit": "µg/mL"},
      {"measurement": "MIC", "setting": "[1]; Neisseria gonorrhoeae strain CDC # 190", "result": "≤ 0.25", "unit": "µg/mL"},
      {"measurement": "MIC", "setting": "[1]; Neisseria gonorrhoeae strain CDC # 191", "result": "≤ 0.25", "unit": "µg/mL"},
      {"measurement": "MIC", "setting": "[1]; Neisseria gonorrhoeae strain CDC # 192", "result": "≤ 0.25", "unit": "µg/mL"},
      {"measurement": "MIC", "setting": "[1]; Neisseria gonorrhoeae strain CDC # 193", "result": "≤ 0.25", "unit": "µg/mL"},
      {"measurement": "MIC", "setting": "[1]; Neisseria gonorrhoeae strain CDC # 194", "result": "≤ 0.25", "unit": "µg/mL"},
      {"measurement": "MIC", "setting": "[1]; Neisseria gonorrhoeae strain CDC # 195", "result": "≤ 0.25", "unit": "µg/mL"},
      {"measurement": "MIC", "setting": "[1]; Neisseria gonorrhoeae strain CDC # 196", "result": "≤ 0.25", "unit": "µg/mL"},
      {"measurement": "MIC", "setting": "[1]; Neisseria gonorrhoeae strain CDC # 198", "result": "≤ 0.25", "unit": "µg/mL"},
      {"measurement": "MIC", "setting": "[1]; Neisseria gonorrhoeae strain CDC # 199", "result": "≤ 0.25", "unit": "µg/mL"},
      {"measurement": "MIC", "setting": "[1]; Neisseria gonorrhoeae strain CDC # 200", "result": "≤ 0.25", "unit": "µg/mL"},
      {"measurement": "MIC", "setting": "[1]; Neisseria gonorrhoeae strain CDC # 201", "result": "≤ 0.25", "unit": "µg/mL"},
      {"measurement": "MIC", "setting": "[1]; Neisseria gonorrhoeae strain CDC # 202", "result": "≤ 0.25", "unit": "µg/mL"},
      {"measurement": "MIC", "setting": "[1]; Neisseria gonorrhoeae strain CDC # 203", "result": "≤ 0.25", "unit": "µg/mL"},
      {"measurement": "MIC", "setting": "[1]; Neisseria gonorrhoeae strain CDC # 204", "result": 0.5, "unit": "µg/mL"},
      {"measurement": "MIC", "setting": "[1]; Neisseria gonorrhoeae strain CDC # 205", "result": "≤ 0.25", "unit": "µg/mL"},
      {"measurement": "MIC", "setting": "[1]; Neisseria gonorrhoeae strain CDC # 206", "result": "≤ 0.25", "unit": "µg/mL"},
      {"measurement": "MIC", "setting": "[1]; Neisseria gonorrhoeae strain CDC # 207", "result": "≤ 0.25", "unit": "µg/mL"},
      {"measurement": "MIC", "setting": "[1]; Neisseria gonorrhoeae strain CDC # 208", "result": "≤ 0.25", "unit": "µg/mL"},
      {"measurement": "MIC", "setting": "[1]; Neisseria gonorrhoeae strain CDC # 209", "result": "≤ 0.25", "unit": "µg/mL"},
      {"measurement": "MIC", "setting": "[1]; Neisseria gonorrhoeae strain CDC # 210", "result": "≤ 0.25", "unit": "µg/mL"},
      {"measurement": "MIC", "setting": "[1]; Neisseria gonorrhoeae strain CDC # 211", "result": "≤ 0.25", "unit": "µg/mL"},
      {"measurement": "MIC", "setting": "[1]; Neisseria gonorrhoeae strain CDC # 212", "result": "≤ 0.25", "unit": "µg/mL"},
      {"measurement": "MIC", "setting": "[1]; Neisseria gonorrhoeae strain CDC # 213", "result": "≤ 0.25", "unit": "µg/mL"},
      {"measurement": "MIC", "setting": "[1]; Neisseria gonorrhoeae strain CDC # 214", "result": "≤ 0.25", "unit": "µg/mL"},
      {"measurement": "in vitro activity (in words)", "setting": "[1]; against N. gonococcus (N. gonorrhoeae), Example 2 conclusion", "result": "Good in vitro activity"},
      {"measurement": "LD50", "setting": "mice; i.m.", "result": 57, "unit": "mg/kg"},
      {"measurement": "LD50", "setting": "mice; p.o.", "result": 331, "unit": "mg/kg"},
      {"measurement": "LD50, median", "setting": "rats; p.o., median of the studies", "result": 302, "unit": "mg/kg"},
      {"measurement": "LD50", "setting": "rats; p.o.", "result": "262 to 342", "unit": "mg/kg"},
      {"measurement": "LD50", "setting": "rats; s.c.", "result": 67, "unit": "mg/kg"}
    ]}
  ]
}
